Experimental data: patent publication US10086028B2, “Method for treating vascular inflammation, improving skin beauty and improving male sexual function using ginseng berry” (AMOREPACIFIC CORPORATION, priority 2007, dated 2018)

Tests used:
[1] = tested on: melanocytes (MeI-Ab cells); assay: Inhibition of melanin generation in mouse melanocytes; format: cell-based, C57BL/6 mouse; conditions: added for 3 consecutive days; sample 10 μg/mL
Procedure: Inhibition of melanin generation in mouse melanocytes was evaluated in order to confirm the effect of the ginseng berry extract of Example 1 of inhibiting melanin generation.
First, melanocytes (MeI-Ab cells) derived from C57BL/6 mouse [Dooley, T. P. et al, Skin Pharmacol., 7, pp. 188-200] were cultured in Dulbecco's modified Eagle's medium (DMEM) containing 10% FBS, 100 nM 2-O-tetradecanoylphorbol-13-acetate and 1 nM cholera toxin under the condition of 37° C., 5% CO2. The cultured MeI-Ab cells were separated using 0.25% trypsin-EDTA, and cultured on a 24-well plate to a concentration of 10^5 cells/well. Starting from day 2, the ginseng berry extract of Example 1 (1 μg/mL, 10 μg/mL and 100 μg/mL), the ginseng berry saponin concentrate of Example 2 (10 μg/mL), the ginseng root extract of Comparative Example 1 (10 μg/mL) or ginsenosides Rg1, Rg2, Rh1 or Re (10 μg/mL) was added for 3 consecutive days. Hydroquinone (10 μg/mL) was used as a positive control substance. Then, after removing the medium and washing with PBS, the cells were dissolved with 1 N sodium hydroxide. Absorbance was measured at 400 nm, and melanin generation inhibition ratio was calculated by Equation 3.

[2] = tested on: matrix metalloproteinase I (MMP-1); assay: Inhibition of UVB-induced MMP-1 expression in human fibroblasts (ELISA); format: cell-based; conditions: UVB 40 mJ/cm^2, 2nd day, relative to UV control; sample 10 μg/mL
Procedure: Human fibroblasts were cultured on a 12-well plate incubator to a concentration of 10^5 cells/well. Then, after irradiating UVB at 40 mJ/cm^2, the medium was replaced by one including the ginseng berry extract of Example 1 (1 μg/mL and 10 μg/mL), the ginseng berry saponin concentrate of Example 2 (10 μg/mL), the ginseng root extract of Comparative Example 1 (10 μg/mL) or ginsenosides Rg1, Rg2, Rh1 or Re (10 μg/mL). 10 ng/mL TGF-β was used as a positive control substance. On the 2nd day of culturing, the cells were harvested and the quantity of produced matrix metalloproteinase I (MMP-1) was analyzed using ELISA. The result was calculated as a relative value with respect to the control group, which was irradiated with UV without treating with a test substance.

[3] = tested on: human HaCaT keratinocytes; assay: Antioxidative effect: removal of UV-generated ROS in HaCaT keratinocytes; format: cell-based; conditions: ROS generated by UV in HaCaT; sample 10 μg/mL (Trolox given as (10))
From the text: Antioxidative effect of the ginseng berry extract was investigated by comparing the ability of removing reactive oxygen species (ROS) generated in human HaCaT keratinocytes by ultraviolet (UV) radiation.

IL1-β = assay: LPS-induced inflammatory factor IL1-β in mouse blood; format: in vivo; conditions: mouse blood about 12 h after LPS, intra-abdominal
Procedure: Based on the experimental result in the cell level, the effect of controlling vascular inflammation of the ginseng berry extract was tested in an animal model. Mice were grouped into a non-treated group, an LPS-induced group, a group treated with the ginseng berry extract of Example 1 (50 μg/mL and 100 μg/mL), a group treated with the ginseng berry saponin concentrate of Example 2 (100 μg/mL), a group treated with the ginseng root extract of Comparative Example 1 (100 μg/mL) and groups treated with ginsenosides Rg1, Rg2, Rh1 or Re (10 μg/mL and 20 μg/mL), with 5 mice per each group.
100 mg of each test substance per kg body weight of mouse, diluted in saline solution (0.9% NaCl), was intra-abdominally injected three times from day 1 through day 3. 2 hours after the injection on day 3, LPS diluted in saline solution (1 μg/mL) was injected intra-abdominally at a concentration of about 4 mg per kg body weight of mouse to induce inflammation by inflammatory factors (PGE2, TNF-α and IL1-β). After approximately 12 hours, the abdomen of the mouse was cut open, and blood was taken from the artery of the heart and stored at […]. The blood was kept at room temperature for 30 minutes and, after centrifuge at 4° C. and 3,000 rpm for 10 minutes, the supernatant was kept at −20° C. Then, the inflammatory factors PGE2, TNF-α and IL1-β were identified by western blotting. Measurement was made twice and the mean value was calculated. The result is shown in Table 4 and FIG. 9 (PGE2 (ng/mL)), Table 5 and FIG. 10 (TNF-α (ng/mL)), and Table 6 and FIG. 11 (IL1-β (pg/mL)).

type I procollagen = assay: Type I procollagen assay in human fibroblasts (ELISA); format: cell-based; conditions: 3rd day, sample 10 μg/mL
Procedure: Human fibroblasts were cultured on a 12-well plate incubator to a concentration of 10^5 cells/well. Then, the medium was replaced by one including the ginseng berry extract of Example 1 (1 μg/mL and 10 μg/mL), the ginseng berry saponin concentrate of Example 2 (10 μg/mL), the ginseng root extract of Comparative Example 1 (10 μg/mL) or ginsenosides Rg1, Rg2, Rh1 or Re (10 μg/mL). 10 ng/mL transforming growth factor β (TGF-β) was used as a positive control substance.
On the 3rd day of culturing, the cells were harvested and the quantity of produced type I procollagen was analyzed using ELISA. The result was calculated as a relative value with respect to the negative control group, which was not treated with a test substance.

[4] = tested on: Macrophages (Raw 264.7 cells); assay: Inhibition of LPS-induced NO generation in macrophages (Griess reaction); format: cell-based; conditions: LPS 1 μg/mL
Procedure: Effect of inhibiting LPS-induced NO generation in macrophages was tested in order to confirm the effect of inhibiting vascular inflammation of the ginseng berry extract.
Macrophages (Raw 264.7 cells) were cultured in a medium containing 10% serum under the condition of 5% CO2. After culturing on a 96-well plate incubator to a concentration of 2×10^5 cells/well and stimulating with LPS (1 μg/mL), the cells were treated with the ginseng berry extract of Example 1 (50 μg/mL and 100 μg/mL), the ginseng berry saponin concentrate of Example 2 (100 μg/mL), the ginseng root extract of Comparative Example 1 (100 μg/mL) or ginsenosides Rg1, Rg2, Rh1 or Re (10 μg/mL and 20 μg/mL), respectively. After keeping the treated cells at 37° C. for 1 hour, the degree of NO generation was measured to compare the effect of inhibiting LPS-induced NO generation of the test substances. NO generation (μM) was measured using the Griess reaction [Minghetti, L. et al., 1991, Glia 19. 152-160]. Measurement was made twice and the mean value was calculated.

SMILES | Melanin generation inhibition ratio (%) [1] [%] | MMP-1 expression (%) [2] [%] | Antioxidative effect (%) [3] [%] | IL1-β, Mean ± standard deviation (IL1-β; group (10 μg/mL)) [pg/mL] | IL1-β, Result 1 (IL1-β; group (10 μg/mL)) [pg/mL] | IL1-β, Result 2 (IL1-β; group (10 μg/mL)) [pg/mL] | IL1-β, Mean ± standard deviation (IL1-β; group (20 μg/mL)) [pg/mL] | IL1-β, Result 1 (IL1-β; group (20 μg/mL)) [pg/mL] | IL1-β, Result 2 (IL1-β; group (20 μg/mL)) [pg/mL] | Procollagen activity relative to negative control (%) (type I procollagen) | NO generation relative to negative control (%) ([4]; sample 10 μg/mL) | NO generation, Mean ± standard deviation ([4]; sample 10 μg/mL) [µM] | NO generation, Result 1 ([4]; sample 10 μg/mL) [µM] | NO generation, Result 2 ([4]; sample 10 μg/mL) [µM] | NO generation relative to negative control (%) ([4]; sample 20 μg/mL) | NO generation, Mean ± standard deviation ([4]; sample 20 μg/mL) [µM] | NO generation, Result 1 ([4]; sample 20 μg/mL) [µM] | NO generation, Result 2 ([4]; sample 20 μg/mL) [µM]
CC(C)=CCC[C@](C)(O[C@@H]1O[C@H](CO)[C@@H](O)[C@H](O)[C@H]1O)[C@H]1CC[C@]2(C)[C@@H]1[C@H](O)C[C@@H]1[C@@]3(C)CC[C@H](O)C(C)(C)[C@@H]3[C@@H](O[C@@H]3O[C@H](CO)[C@@H](O)[C@H](O)[C@H]3O)C[C@]12C [Rg1] | 1 | 98 | 2 | 133.50 ± 7.78 | 128 | 139 | 141.50 ± 9.19 | 135 | 148 | 105 | 101.2 | 16.83 ± 0.63 | 16.38 | 17.27 | 99.3 | 16.50 ± 1.06 | 15.75 | 17.25
CC(C)=CCC[C@](C)(O)[C@H]1CC[C@]2(C)[C@@H]1[C@H](O)C[C@@H]1[C@@]3(C)CC[C@H](O)C(C)(C)[C@@H]3[C@@H](O[C@@H]3O[C@H](CO)[C@@H](O)[C@H](O)[C@H]3O[C@@H]3O[C@@H](C)[C@H](O)[C@@H](O)[C@H]3O)C[C@]12C [Rg2] | 0 | 90 | 1 | 131.50 ± 3.54 | 129 | 134 | 125.00 ± 8.49 | 131 | 119 | 110 | 100.3 | 16.68 ± 0.45 | 17.00 | 16.36 | 97.4 | 16.19 ± 0.01 | 16.18 | 16.19
CC(C)=CCC[C@](C)(O)[C@H]1CC[C@]2(C)[C@@H]1[C@H](O)C[C@@H]1[C@@]3(C)CC[C@H](O)C(C)(C)[C@@H]3[C@@H](O[C@@H]3O[C@H](CO)[C@@H](O)[C@H](O)[C@H]3O)C[C@]12C [Rh1] | 2 | 90 | 3 | 121.50 ± 7.78 | 116 | 127 | 112.75 ± 6.72 | 108 | 117.5 | 105 | 89.4 | 14.86 ± 0.07 | 14.92 | 14.81 | 75.1 | 12.48 ± 0.26 | 12.29 | 12.66
